Source: the kinase profiling compilation of Christmann-Franck et al. (2016)

Assays:
Assay in all cases: radiometric filter-binding kinase assay, Kinase HotSpot
Details in all cases: compound 0.5 µM; ATP 10 µM
ADRBK2 (human) = ADRBK2 (human) (UniProt P35626)
CAMK1G (human) = CAMK1G (human) (UniProt Q96NX5)
CAMK2D (human) = CAMK2D (human) (UniProt Q13557)
CAMK2G (human) = CAMK2G (human) (UniProt Q13555)
CDC42BPA (human) = CDC42BPA (human) (UniProt Q5VT25)
CSNK1G3 (human) = CSNK1G3 (human) (UniProt Q9Y6M4)
DYRK2 (human) = DYRK2 (human) (UniProt Q92630)
EPHA2 (human) = EPHA2 (human) (UniProt P29317)
EPHA3 (human) = EPHA3 (human) (UniProt P29320)
EPHB1 (human) = EPHB1 (human) (UniProt P54762)
FGFR2 (human) = FGFR2 (human) (UniProt P21802)
GRK5 (human) = GRK5 (human) (UniProt P34947)
HIPK3 (human) = HIPK3 (human) (UniProt Q9H422)
IRAK1 (human) = IRAK1 (human) (UniProt P51617)
IRAK4 (human) = IRAK4 (human) (UniProt Q9NWZ3)
MAPK11 (human) = MAPK11 (human) (UniProt Q15759)
MARK2 (human) = MARK2 (human) (UniProt Q7KZI7)
MELK (human) = MELK (human) (UniProt Q14680)
MLTK (human) = MLTK (human) (UniProt Q9NYL2)
MUSK (human) = MUSK (human) (UniProt O15146)
NEK2 (human) = NEK2 (human) (UniProt P51955)
NEK3 (human) = NEK3 (human) (UniProt P51956)
NEK9 (human) = NEK9 (human) (UniProt Q8TD19)
NUAK1 (human) = NUAK1 (human) (UniProt O60285)
NUAK2 (human) = NUAK2 (human) (UniProt Q9H093)
PAK4 (human) = PAK4 (human) (UniProt O96013)
PAK7 (human) = PAK7 (human) (UniProt Q9P286)
PASK (human) = PASK (human) (UniProt Q96RG2)
PDGFRA (human) = PDGFRA (human) (UniProt P16234)
PNCK (human) = PNCK (human) (UniProt Q6P2M8)
PRKD2 (human) = PRKD2 (human) (UniProt Q9BZL6)
ROCK2 (human) = ROCK2 (human) (UniProt O75116)
ROS1 (human) = ROS1 (human) (UniProt P08922)
RPS6KA1 KD1 KD2 (human) = RPS6KA1 KD1 KD2 (human) (UniProt Q15418)
RPS6KA3 KD1 KD2 (human) = RPS6KA3 KD1 KD2 (human) (UniProt P51812)
RPS6KA6 KD1 KD2 (human) = RPS6KA6 KD1 KD2 (human) (UniProt Q9UK32)
SRMS (human) = SRMS (human) (UniProt Q9H3Y6)
STK17A (human) = STK17A (human) (UniProt Q9UEE5)
STK39 (human) = STK39 (human) (UniProt Q9UEW8)
TAOK3 (human) = TAOK3 (human) (UniProt Q9H2K8)
VRK1 (human) = VRK1 (human) (UniProt Q99986)
ZAP70 (human) = ZAP70 (human) (UniProt P43403)

Chain of PRKD2 (human) (Q9BZL6 whole entry, looked up): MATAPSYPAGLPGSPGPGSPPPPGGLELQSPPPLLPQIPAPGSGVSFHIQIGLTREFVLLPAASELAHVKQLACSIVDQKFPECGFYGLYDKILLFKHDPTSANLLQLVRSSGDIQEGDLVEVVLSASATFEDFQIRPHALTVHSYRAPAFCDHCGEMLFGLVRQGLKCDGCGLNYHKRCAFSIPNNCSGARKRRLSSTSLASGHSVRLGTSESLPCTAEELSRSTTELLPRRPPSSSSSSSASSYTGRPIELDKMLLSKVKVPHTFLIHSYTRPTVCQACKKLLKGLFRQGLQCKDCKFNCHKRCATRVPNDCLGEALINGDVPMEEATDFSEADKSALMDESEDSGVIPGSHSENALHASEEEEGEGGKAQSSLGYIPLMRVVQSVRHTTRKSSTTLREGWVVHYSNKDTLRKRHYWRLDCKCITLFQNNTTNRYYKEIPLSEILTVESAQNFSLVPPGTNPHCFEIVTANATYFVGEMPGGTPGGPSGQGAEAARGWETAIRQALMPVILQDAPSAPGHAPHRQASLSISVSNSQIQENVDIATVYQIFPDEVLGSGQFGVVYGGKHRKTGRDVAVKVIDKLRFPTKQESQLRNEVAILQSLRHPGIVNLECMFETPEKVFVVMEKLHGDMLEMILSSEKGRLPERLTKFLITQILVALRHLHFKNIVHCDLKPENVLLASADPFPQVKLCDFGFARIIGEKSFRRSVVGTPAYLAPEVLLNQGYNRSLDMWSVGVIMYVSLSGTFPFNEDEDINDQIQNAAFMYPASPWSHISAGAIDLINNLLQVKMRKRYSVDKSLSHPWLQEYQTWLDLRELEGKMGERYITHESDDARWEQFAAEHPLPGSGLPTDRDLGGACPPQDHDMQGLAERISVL
Chain of ROCK2 (human) (O75116 whole entry, looked up): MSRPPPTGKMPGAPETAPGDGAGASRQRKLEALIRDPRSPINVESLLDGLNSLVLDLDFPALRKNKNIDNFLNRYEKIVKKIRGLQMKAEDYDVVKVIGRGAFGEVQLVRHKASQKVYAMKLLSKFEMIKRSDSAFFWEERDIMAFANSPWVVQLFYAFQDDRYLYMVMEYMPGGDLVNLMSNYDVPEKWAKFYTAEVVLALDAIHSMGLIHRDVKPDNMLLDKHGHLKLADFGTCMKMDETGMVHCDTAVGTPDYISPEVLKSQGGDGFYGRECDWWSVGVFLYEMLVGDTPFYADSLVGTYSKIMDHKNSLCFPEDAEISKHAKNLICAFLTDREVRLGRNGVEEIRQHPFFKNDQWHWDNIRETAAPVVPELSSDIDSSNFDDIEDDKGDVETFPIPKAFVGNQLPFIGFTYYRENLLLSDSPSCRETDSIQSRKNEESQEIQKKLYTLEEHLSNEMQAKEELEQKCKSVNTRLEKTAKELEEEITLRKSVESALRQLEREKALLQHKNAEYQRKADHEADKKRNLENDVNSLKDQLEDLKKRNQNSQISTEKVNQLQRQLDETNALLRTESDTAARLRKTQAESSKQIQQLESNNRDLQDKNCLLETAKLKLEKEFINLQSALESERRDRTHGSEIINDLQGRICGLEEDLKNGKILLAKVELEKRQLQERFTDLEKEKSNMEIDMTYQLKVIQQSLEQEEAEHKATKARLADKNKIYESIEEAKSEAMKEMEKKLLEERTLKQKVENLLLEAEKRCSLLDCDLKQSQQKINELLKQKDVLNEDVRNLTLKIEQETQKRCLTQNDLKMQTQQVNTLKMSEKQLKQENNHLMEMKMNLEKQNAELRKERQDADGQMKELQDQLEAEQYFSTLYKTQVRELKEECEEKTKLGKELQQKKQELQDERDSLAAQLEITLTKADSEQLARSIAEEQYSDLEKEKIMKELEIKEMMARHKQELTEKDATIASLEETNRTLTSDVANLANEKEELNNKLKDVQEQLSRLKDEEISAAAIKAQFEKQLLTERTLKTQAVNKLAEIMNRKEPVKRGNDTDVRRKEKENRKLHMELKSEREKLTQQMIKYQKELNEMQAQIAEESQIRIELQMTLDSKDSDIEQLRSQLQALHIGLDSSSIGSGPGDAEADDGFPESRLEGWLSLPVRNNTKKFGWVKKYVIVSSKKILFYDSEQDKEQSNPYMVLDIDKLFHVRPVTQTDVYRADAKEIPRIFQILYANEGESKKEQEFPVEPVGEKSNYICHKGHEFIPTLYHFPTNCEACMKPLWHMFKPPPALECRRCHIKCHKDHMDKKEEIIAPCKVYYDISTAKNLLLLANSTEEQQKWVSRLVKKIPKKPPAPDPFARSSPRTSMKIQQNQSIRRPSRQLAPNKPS
Chain of MELK (human) (Q14680 whole entry, looked up): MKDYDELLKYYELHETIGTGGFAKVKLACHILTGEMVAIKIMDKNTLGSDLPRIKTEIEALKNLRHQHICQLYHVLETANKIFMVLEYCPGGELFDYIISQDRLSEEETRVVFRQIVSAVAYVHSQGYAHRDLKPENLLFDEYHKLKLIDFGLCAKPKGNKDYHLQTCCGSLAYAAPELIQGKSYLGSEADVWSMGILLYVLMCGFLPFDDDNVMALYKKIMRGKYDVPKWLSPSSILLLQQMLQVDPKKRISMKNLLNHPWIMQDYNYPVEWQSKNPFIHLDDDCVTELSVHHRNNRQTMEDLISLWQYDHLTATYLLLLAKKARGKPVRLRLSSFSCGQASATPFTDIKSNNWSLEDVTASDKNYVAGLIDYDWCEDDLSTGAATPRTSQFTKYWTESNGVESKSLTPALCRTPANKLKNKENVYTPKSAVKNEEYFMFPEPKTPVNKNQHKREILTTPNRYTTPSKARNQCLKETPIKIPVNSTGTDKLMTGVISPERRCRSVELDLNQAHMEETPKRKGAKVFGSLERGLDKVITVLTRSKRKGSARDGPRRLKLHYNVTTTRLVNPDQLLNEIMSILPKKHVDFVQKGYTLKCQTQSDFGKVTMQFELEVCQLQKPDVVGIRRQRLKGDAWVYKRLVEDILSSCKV
Chain of PAK7 (human) (Q9P286 whole entry, looked up): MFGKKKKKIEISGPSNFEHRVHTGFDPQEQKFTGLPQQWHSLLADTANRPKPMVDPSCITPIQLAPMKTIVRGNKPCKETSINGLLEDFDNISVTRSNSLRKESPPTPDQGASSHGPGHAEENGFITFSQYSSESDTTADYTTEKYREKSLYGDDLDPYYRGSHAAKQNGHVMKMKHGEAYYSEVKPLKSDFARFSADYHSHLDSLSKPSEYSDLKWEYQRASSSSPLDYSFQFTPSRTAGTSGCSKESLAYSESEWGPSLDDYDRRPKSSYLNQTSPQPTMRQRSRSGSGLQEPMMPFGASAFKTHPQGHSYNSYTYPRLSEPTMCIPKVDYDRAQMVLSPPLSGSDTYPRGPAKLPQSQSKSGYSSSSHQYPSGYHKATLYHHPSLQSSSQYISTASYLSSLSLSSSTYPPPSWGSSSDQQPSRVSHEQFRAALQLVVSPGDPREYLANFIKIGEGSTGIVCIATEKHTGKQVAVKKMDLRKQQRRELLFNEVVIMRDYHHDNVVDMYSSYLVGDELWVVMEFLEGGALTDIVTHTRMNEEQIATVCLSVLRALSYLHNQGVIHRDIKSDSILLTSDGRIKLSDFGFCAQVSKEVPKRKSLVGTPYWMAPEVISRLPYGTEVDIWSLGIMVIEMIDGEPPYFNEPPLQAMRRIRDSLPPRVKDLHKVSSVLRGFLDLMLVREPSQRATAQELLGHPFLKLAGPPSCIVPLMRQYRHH
Chain of PASK (human) (Q96RG2 whole entry, looked up): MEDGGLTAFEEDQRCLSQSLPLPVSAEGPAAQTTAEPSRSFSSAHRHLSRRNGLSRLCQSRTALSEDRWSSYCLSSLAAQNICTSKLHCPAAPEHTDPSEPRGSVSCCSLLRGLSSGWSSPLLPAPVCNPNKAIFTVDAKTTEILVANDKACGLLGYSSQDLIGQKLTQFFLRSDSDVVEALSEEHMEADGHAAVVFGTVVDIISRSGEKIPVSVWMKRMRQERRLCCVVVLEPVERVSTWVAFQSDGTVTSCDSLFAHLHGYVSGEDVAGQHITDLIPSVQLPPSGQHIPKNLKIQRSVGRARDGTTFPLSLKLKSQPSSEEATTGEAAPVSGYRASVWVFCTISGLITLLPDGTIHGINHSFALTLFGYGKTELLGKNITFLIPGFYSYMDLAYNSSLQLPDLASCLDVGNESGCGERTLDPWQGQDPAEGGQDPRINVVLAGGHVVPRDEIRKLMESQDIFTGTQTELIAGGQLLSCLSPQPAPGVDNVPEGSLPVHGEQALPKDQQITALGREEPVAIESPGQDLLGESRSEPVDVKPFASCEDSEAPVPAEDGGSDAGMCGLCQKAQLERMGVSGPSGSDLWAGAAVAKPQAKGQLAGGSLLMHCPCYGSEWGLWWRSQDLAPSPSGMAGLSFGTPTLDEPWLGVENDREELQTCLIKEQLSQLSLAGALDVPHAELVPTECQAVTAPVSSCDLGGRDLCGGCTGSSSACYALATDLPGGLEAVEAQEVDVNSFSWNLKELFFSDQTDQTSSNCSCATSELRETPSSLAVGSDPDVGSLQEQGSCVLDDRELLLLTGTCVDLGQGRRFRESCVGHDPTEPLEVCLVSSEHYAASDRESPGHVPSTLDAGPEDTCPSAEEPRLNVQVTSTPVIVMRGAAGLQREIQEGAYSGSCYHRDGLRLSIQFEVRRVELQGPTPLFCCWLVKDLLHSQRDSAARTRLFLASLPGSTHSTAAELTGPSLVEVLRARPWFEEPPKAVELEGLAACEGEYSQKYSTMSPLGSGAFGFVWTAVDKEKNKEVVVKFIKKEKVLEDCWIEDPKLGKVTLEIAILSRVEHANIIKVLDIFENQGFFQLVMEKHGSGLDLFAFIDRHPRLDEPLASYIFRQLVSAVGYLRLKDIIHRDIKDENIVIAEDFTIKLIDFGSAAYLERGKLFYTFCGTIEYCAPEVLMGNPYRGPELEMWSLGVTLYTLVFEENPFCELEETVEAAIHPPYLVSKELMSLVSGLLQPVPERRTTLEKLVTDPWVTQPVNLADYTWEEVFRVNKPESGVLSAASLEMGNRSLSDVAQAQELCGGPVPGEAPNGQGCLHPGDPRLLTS

Compound: CCOc1cc2ncnc(Nc3cccc(Br)c3)c2cc1OCC
- residual activity (ADRBK2 (human)): 93.8%
- residual activity (CAMK1G (human)): 97.2%
- residual activity (CAMK2D (human)): 87%
- residual activity (CAMK2G (human)): 96.5%
- residual activity (CDC42BPA (human)): 85.4%
- residual activity (CSNK1G3 (human)): 98.7%
- residual activity (DYRK2 (human)): 88.8%
- residual activity (EPHA2 (human)): 80.3%
- residual activity (EPHA3 (human)): 83.3%
- residual activity (EPHB1 (human)): 73.8%
- residual activity (FGFR2 (human)): 96.3%
- residual activity (GRK5 (human)): 104%
- residual activity (HIPK3 (human)): 102%
- residual activity (IRAK1 (human)): 95.1%
- residual activity (IRAK4 (human)): 102%
- residual activity (MAPK11 (human)): 89%
- residual activity (MARK2 (human)): 94.5%
- residual activity (MELK (human)): 88.1%
- residual activity (MLTK (human)): 89.8%
- residual activity (MUSK (human)): 92.6%
- residual activity (NEK2 (human)): 98.7%
- residual activity (NEK3 (human)): 100%
- residual activity (NEK9 (human)): 96.7%
- residual activity (NUAK1 (human)): 94%
- residual activity (NUAK2 (human)): 89.7%
- residual activity (PAK4 (human)): 115%
- residual activity (PAK7 (human)): 99.1%
- residual activity (PASK (human)): 92.3%
- residual activity (PDGFRA (human)): 84.7%
- residual activity (PNCK (human)): 103%
- residual activity (PRKD2 (human)): 86.9%
- residual activity (ROCK2 (human)): 91.8%
- residual activity (ROS1 (human)): 102%
- residual activity (RPS6KA1 KD1 KD2 (human)): 82.8%
- residual activity (RPS6KA3 KD1 KD2 (human)): 89.9%
- residual activity (RPS6KA6 KD1 KD2 (human)): 93.3%
- residual activity (SRMS (human)): 85.7%
- residual activity (STK17A (human)): 98.9%
- residual activity (STK39 (human)): 110%
- residual activity (TAOK3 (human)): 96.2%
- residual activity (VRK1 (human)): 101%
- residual activity (ZAP70 (human)): 105%

Compound: COc1cc2ncnc(Nc3ccc(O)c(Br)c3)c2cc1OC
- residual activity (ADRBK2 (human)): 103%
- residual activity (CAMK1G (human)): 103%
- residual activity (CAMK2D (human)): 95.7%
- residual activity (CAMK2G (human)): 95.2%
- residual activity (CDC42BPA (human)): 96.9%
- residual activity (CSNK1G3 (human)): 101%
- residual activity (DYRK2 (human)): 60%
- residual activity (EPHA2 (human)): 80.6%
- residual activity (EPHA3 (human)): 95.4%
- residual activity (EPHB1 (human)): 81.4%
- residual activity (FGFR2 (human)): 95.9%
- residual activity (GRK5 (human)): 101%
- residual activity (HIPK3 (human)): 67.7%
- residual activity (IRAK1 (human)): 75.5%
- residual activity (IRAK4 (human)): 91.1%
- residual activity (MAPK11 (human)): 90.1%
- residual activity (MARK2 (human)): 94.5%
- residual activity (MELK (human)): 83.4%
- residual activity (MLTK (human)): 89%
- residual activity (MUSK (human)): 78.2%
- residual activity (NEK2 (human)): 105%
- residual activity (NEK3 (human)): 88.4%
- residual activity (NEK9 (human)): 104%
- residual activity (NUAK1 (human)): 68.2%
- residual activity (NUAK2 (human)): 88.3%
- residual activity (PAK4 (human)): 95.7%
- residual activity (PAK7 (human)): 97.7%
- residual activity (PASK (human)): 57.9%
- residual activity (PDGFRA (human)): 88.9%
- residual activity (PNCK (human)): 103%
- residual activity (PRKD2 (human)): 69.7%
- residual activity (ROCK2 (human)): 89.9%
- residual activity (ROS1 (human)): 65.7%
- residual activity (RPS6KA1 KD1 KD2 (human)): 78.2%
- residual activity (RPS6KA3 KD1 KD2 (human)): 69.4%
- residual activity (RPS6KA6 KD1 KD2 (human)): 57.8%
- residual activity (SRMS (human)): 90.4%
- residual activity (STK17A (human)): 72.3%
- residual activity (STK39 (human)): 87.4%
- residual activity (TAOK3 (human)): 98.8%
- residual activity (VRK1 (human)): 86.4%
- residual activity (ZAP70 (human)): 99.7%

Compound: CCc1nc(-c2ccc(OC)cc2)[nH]c1-c1ccncc1
- residual activity (ADRBK2 (human)): 98.4%
- residual activity (CAMK1G (human)): 98%
- residual activity (CAMK2D (human)): 96.4%
- residual activity (CAMK2G (human)): 106%
- residual activity (CDC42BPA (human)): 96.3%
- residual activity (CSNK1G3 (human)): 106%
- residual activity (DYRK2 (human)): 85.8%
- residual activity (EPHA2 (human)): 102%
- residual activity (EPHA3 (human)): 100%
- residual activity (EPHB1 (human)): 104%
- residual activity (FGFR2 (human)): 104%
- residual activity (GRK5 (human)): 107%
- residual activity (HIPK3 (human)): 106%
- residual activity (IRAK1 (human)): 128%
- residual activity (IRAK4 (human)): 111%
- residual activity (MAPK11 (human)): 104%
- residual activity (MARK2 (human)): 99.4%
- residual activity (MELK (human)): 110%
- residual activity (MLTK (human)): 106%
- residual activity (MUSK (human)): 85.9%
- residual activity (NEK2 (human)): 100%
- residual activity (NEK3 (human)): 92.4%
- residual activity (NEK9 (human)): 101%
- residual activity (NUAK1 (human)): 92.8%
- residual activity (NUAK2 (human)): 129%
- residual activity (PAK4 (human)): 118%
- residual activity (PAK7 (human)): 101%
- residual activity (PASK (human)): 96.3%
- residual activity (PDGFRA (human)): 96.3%
- residual activity (PNCK (human)): 102%
- residual activity (PRKD2 (human)): 102%
- residual activity (ROCK2 (human)): 101%
- residual activity (ROS1 (human)): 91.8%
- residual activity (RPS6KA1 KD1 KD2 (human)): 106%
- residual activity (RPS6KA3 KD1 KD2 (human)): 98.7%
- residual activity (RPS6KA6 KD1 KD2 (human)): 111%
- residual activity (SRMS (human)): 106%
- residual activity (STK17A (human)): 96.1%
- residual activity (STK39 (human)): 94.2%
- residual activity (TAOK3 (human)): 107%
- residual activity (VRK1 (human)): 104%
- residual activity (ZAP70 (human)): 101%
